Laboratory results from patent publication US20020165130A1, “Method of sensitizing microbial cells to antimicrobial compounds” (priority 1998, published 2002).
“Also recorded” adds a separate entry of the source. Read-outs that look alike come from different tables or passages of the source.

Assays:
Assay type in all cases: cell-based
[1] = tested on: Staphylococcus aureus ATCC 6538; assay: Antibiotic disc assay (zones of inhibition), S. aureus; settings: for sensitization to six different antibiotics: disc diffusion, 0.5-2 mM sesquiterpenoid; for zone size, ciprofloxacin 5 μg disc: terpenoid at 0.5 mM in agar overlay
Description: (§1) Erwinia sp. #351 was from Presque Isle Cultures, Presque Isle, Pa. Lactobacillus fermentum ATCC 14931, zygosaccharomyces bailii ATCC 60483 and E. coli ATCC 25922 (National Committee on Clinical Laboratory Standards antibiotic test strain) were from the American Type Culture Collection, Manassas, Va. Staphylococcus aureus ATCC 6538 and Enterococcus faecalis Bact. 4025 were obtained from the UW-Madison Department of Bacteriology culture collection. All bacteria except for L. fermentum were grown statically in screwcap tubes containing 10 ml Trypticase Soy Broth (BBL, Cockeysville, Md.) for 20-22 hours at 30° C. L. fermentum was grown statically in screwcap tubes containing 10 ml MRS broth (Difco) for 20-22 hours at 30° C. Cultures of Z. bailii were grown in 125 ml culture flasks containing 50 ml YM broth (Difco) on a rotary shaker set at 200 rpm for 20-22 hours at 25° C.
(§2) The activity of terpenoid compounds toward facilitating susceptibility to antibiotics was assessed using an antibiotic disc assay. For this assay, cells from an overnight growth were suspended to a known concentration in 0.5 ml 67 mM phosphate buffer, pH 7.0 and mixed with 4.5 ml 0.7% Iso-Sensitest agar (Oxoid, Basingstoke, Hampshire, England) overlay tempered to 50° C. Terpenoid compounds dissolved in absolute ethanol were added to the cell/agar overlay mixture yielding final concentrations of 0.5, 1.0 or 2.0 mM, depending on the experiment. The final concentration of ethanol in cell overlays was 0.5% and the final concentration of target cells was ca. 10^6 cfu/ml. After thorough vortexing, terpenoid-containing cell overlays were poured over hardened Iso-Sensitest agar (2% agar) plates and allowed to set. […] After incubation, zones of inhibition were measured with a ruler from the bottom of the plates.

[2] = tested on: Enterococcus faecalis Bact. 4025; settings: E. faecalis; for degree of sensitization to antibiotics: disc diffusion
Description: as §1, §2

[3] = tested on: Lactobacillus fermentum ATCC 14931; assay: Flow cytometry, uptake of ethidium bromide by L. fermentum; settings: 0.5 mM sesquiterpenoid, 15 μM ethidium bromide, 40 minutes
Description: (§3) Erwinia sp. #351 was from Presque Isle Cultures, Presque Isle, Pa. Lactobacillus fermentum ATCC 14931, zygosaccharomyces bailii ATCC 60483 and E. coli ATCC 25922 (National Committee on Clinical Laboratory Standards antibiotic test strain) were from the American Type Culture Collection, Manassas, Va. Staphylococcus aureus ATCC 6538 and Enterococcus faecalis Bact. 4025 were obtained from the UW-Madison Department of Bacteriology culture collection. All bacteria except for L. fermentum were grown statically in screwcap tubes containing 10 ml Trypticase Soy Broth (BBL, Cockeysville, Md.) for 20-22 hours at 30° C. L. fermentum was grown statically in screwcap tubes containing 10 ml MRS broth (Difco) for 20-22 hours at 30° C. Cultures of Z. bailii were grown in 125 ml culture flasks containing 50 ml YM broth (Difco) on a rotary shaker set at 200 rpm for 20-22 hours at 25° C. For experiments involving flow cytometry, overnight cultures of Erwinia sp., L. fermentum and Z. bailli were set to a concentration of ca. 10^7 cfu/ml in 67 mM phosphate buffer, pH 7.0 (filtered, 0.2 μm). For the examination of sesquiterpenoids, cell suspensions containing either 0.5% ethanol and 15 μM ethidium bromide or 0.5 mM apritone, bisabolol, nerolidol or farnesol dissolved in ethanol (0.5% ethanol, final concentration) and 15 μM ethidium bromide were incubated for 40 minutes at room temperature. After incubation, cell suspensions were diluted 1:10 in 67 mM phosphate buffer, pH 7.0 (filtered, 0.2 μm) and examined using a FACScan flow cytometer (Becton Dickinson and Company, Cockeysville, Md.). Data were collected in logarithmic mode on forward scatter, side scatter and fluorescence characteristics of the cells.

[4] = tested on: zygosaccharomyces bailii ATCC 60483; assay: Flow cytometry, uptake of ethidium bromide by Z. bailii; settings: 0.5 mM sesquiterpenoid, 15 μM ethidium bromide, 40 minutes
Description: as §3

[5] = antibiotic disc with 0.5 mM apritone (A) in agar overlay
[6] = antibiotic disc with 0.5 mM bisabolol (B) in agar overlay
[7] = antibiotic disc with 0.5 mM nerolidol (N) in agar overlay
[8] = antibiotic disc with 1 mM apritone (A) in agar overlay
[9] = antibiotic disc with 1 mM bisabolol (B) in agar overlay
[10] = antibiotic disc with 1 mM nerolidol (N) in agar overlay
[11] = antibiotic disc with 2 mM apritone (A) in agar overlay
[12] = antibiotic disc with 2 mM bisabolol (B) in agar overlay
[13] = antibiotic disc with 2 mM nerolidol (N) in agar overlay
[14] = antibiotic disc, control (no sesquiterpenoid in agar overlay)
[15] = antibiotic disc, control (no sesquiterpenoid)

CC(C)=CCC/C(C)=C/CC1CCCC1=O (stereo not drawn) [apritone]
ability to sensitize S. aureus to ciprofloxacin ([1]; 0.5 mM terpenoid, ciprofloxacin 5 μg disc): least effective | sensitization to six different antibiotics [1]: readily sensitized | zone size, ciprofloxacin 5 μg disc ([1]; ciprofloxacin 5 μg disc): 24 mm | degree of sensitization to antibiotics ([2]; 1 mM sesquiterpenoid): only a modest degree of sensitization | uptake of ethidium bromide (ethidium-conferred fluorescence) [3]: facilitated the uptake of ethidium bromide | uptake of ethidium bromide (fluorescence, chromosomal staining) [4]: greatest degree of chromosomal staining; also recorded: became more fluorescent

CC(C)=CCC[C@](C)(O)C1CC=C(C)CC1 (stereo partly drawn) [bisabolol]
sensitization to six different antibiotics [1]: readily sensitized | zone size, ciprofloxacin 5 μg disc ([1]; ciprofloxacin 5 μg disc): 25 mm | zones smaller than control plates by ([2]; clindamycin 2 μg disc, 1 mM sesquiterpenoid): 1 mm | degree of sensitization to antibiotics ([2]; 1 mM sesquiterpenoid): only a modest degree of sensitization | uptake of ethidium bromide (ethidium-conferred fluorescence) [3]: facilitated the uptake of ethidium bromide | uptake of ethidium bromide (fluorescence, chromosomal staining) [4]: became more fluorescent

C=C1C2CCC(C2)C1(C)C (stereo not drawn) [camphene]
zone size, ciprofloxacin 5 μg disc ([1]; ciprofloxacin 5 μg disc): 22 mm

CC12CCC(CC1)C(C)(C)O2 [cineole]
zone size, ciprofloxacin 5 μg disc ([1]; ciprofloxacin 5 μg disc): 23 mm

CC(C)=CCCC(C)=CC=O [citral]
zone size, ciprofloxacin 5 μg disc ([1]; ciprofloxacin 5 μg disc): 22 mm

CC(C)=CCCC(C)CC=O (stereo not drawn) [citronellal]
zone size, ciprofloxacin 5 μg disc ([1]; ciprofloxacin 5 μg disc): 22 mm

CC(C)=CCCC(C)CCO (stereo not drawn) [citronellol]
zone size, ciprofloxacin 5 μg disc ([1]; ciprofloxacin 5 μg disc): 22.5 mm

CCC[C@@H]1C[C@@H](C(=O)N[C@@H]([C@H]2O[C@H](SC)[C@H](O)[C@@H](O)[C@H]2O)[C@H](C)Cl)N(C)C1 [clindamycin]
Diameters of zones of inhibition [1, 5]: 22 millimeters | Diameters of zones of inhibition [1, 6]: 24.5 millimeters | Diameters of zones of inhibition [1, 7]: 23.5 millimeters | Diameters of zones of inhibition [1, 8]: 25 millimeters | Diameters of zones of inhibition [1, 9]: 27 millimeters | Diameters of zones of inhibition [1, 10]: 31.5 millimeters | Diameters of zones of inhibition [1, 11]: 27.5 millimeters | Diameters of zones of inhibition [1, 12]: 32 millimeters | Diameters of zones of inhibition [1, 13]: 35.5 millimeters | Diameters of zones of inhibition [1, 14]: 22 millimeters | Diameters of zones of inhibition [2, 8]: 12 millimeters | Diameters of zones of inhibition [2, 9]: 11 millimeters | Diameters of zones of inhibition [2, 10]: 11 millimeters | Diameters of zones of inhibition [2, 15]: 12 millimeters

CC[C@H]1OC(=O)[C@H](C)[C@@H](O[C@H]2C[C@@](C)(OC)[C@@H](O)[C@H](C)O2)[C@H](C)[C@@H](O[C@@H]2O[C@H](C)C[C@H](N(C)C)[C@H]2O)[C@](C)(O)C[C@@H](C)C(=O)[C@H](C)[C@@H](O)[C@]1(C)O [erythromycin]
Diameters of zones of inhibition [1, 5]: 26 millimeters | Diameters of zones of inhibition [1, 6]: 26 millimeters | Diameters of zones of inhibition [1, 7]: 27 millimeters | Diameters of zones of inhibition [1, 8]: 25 millimeters | Diameters of zones of inhibition [1, 9]: 29 millimeters | Diameters of zones of inhibition [1, 10]: 29.5 millimeters | Diameters of zones of inhibition [1, 11]: 26.5 millimeters | Diameters of zones of inhibition [1, 12]: 30 millimeters | Diameters of zones of inhibition [1, 13]: 33 millimeters | Diameters of zones of inhibition [1, 14]: 24 millimeters | Diameters of zones of inhibition [2, 8]: 18 millimeters | Diameters of zones of inhibition [2, 9]: 19 millimeters | Diameters of zones of inhibition [2, 10]: 19.5 millimeters | Diameters of zones of inhibition [2, 15]: 18.5 millimeters

CC(C)=CCCC(C)=CCCC(C)=CCO [farnesol]
inhibitory by itself in disc assay overlay ([1]; all concentrations used (0.5, 1, 2 mM)): inhibitory | inhibitory by itself in disc assay overlay ([2]; 1 mM): inhibitory | uptake of ethidium bromide (ethidium-conferred fluorescence) [3]: facilitated the uptake of ethidium bromide | uptake of ethidium bromide (ethidium-conferred fluorescence) ([3]; listed as Farnesol): highest ethidium-conferred fluorescence peak | uptake of ethidium bromide (fluorescence, chromosomal staining) [4]: became more fluorescent

CC(C)=CCC/C(C)=C/CO [geraniol]
zone size, ciprofloxacin 5 μg disc ([1]; ciprofloxacin 5 μg disc): 23 mm

C=C(C)[C@H]1CC=C(C)CC1 [limonene]
zone size, ciprofloxacin 5 μg disc ([1]; ciprofloxacin 5 μg disc): 22 mm

C=CC(C)(O)CCC=C(C)C (stereo not drawn) [linalool]
zone size, ciprofloxacin 5 μg disc ([1]; ciprofloxacin 5 μg disc): 22.5 mm

CC(C)[C@@H]1CC[C@@H](C)CC1=O [menthone]
zone size, ciprofloxacin 5 μg disc ([1]; ciprofloxacin 5 μg disc): 23 mm

C=CC(=C)CCC=C(C)C [myrcene]
zone size, ciprofloxacin 5 μg disc ([1]; ciprofloxacin 5 μg disc): 21.5 mm

CC(C)=CCC/C(C)=C\CO [nerol]
zone size, ciprofloxacin 5 μg disc ([1]; ciprofloxacin 5 μg disc): 22 mm

CN(C)[C@@H]1C(O)=C(C(N)=O)C(=O)[C@@]2(O)C(O)=C3C(=O)c4c(O)cccc4[C@@](C)(O)[C@H]3C[C@@H]12 [tetracycline]
Diameters of zones of inhibition [1, 5]: 25.5 millimeters | Diameters of zones of inhibition [1, 6]: 25 millimeters | Diameters of zones of inhibition [1, 7]: 25.5 millimeters | Diameters of zones of inhibition [1, 8]: 26 millimeters | Diameters of zones of inhibition [1, 9]: 26 millimeters | Diameters of zones of inhibition [1, 10]: 26.5 millimeters | Diameters of zones of inhibition [1, 11]: 27.5 millimeters | Diameters of zones of inhibition [1, 12]: 30 millimeters | Diameters of zones of inhibition [1, 13]: 32.5 millimeters | Diameters of zones of inhibition [1, 14]: 21.5 millimeters | Diameters of zones of inhibition [2, 8]: 22.5 millimeters | Diameters of zones of inhibition [2, 9]: 24 millimeters | Diameters of zones of inhibition [2, 10]: 23.5 millimeters | Diameters of zones of inhibition [2, 15]: 22 millimeters

CC(C)CCCC(C)CCO (stereo not drawn) [tetrahydrogeraniol]
zone size, ciprofloxacin 5 μg disc ([1]; ciprofloxacin 5 μg disc): 22.5 mm

CCC(C)(O)CCCC(C)C (stereo not drawn) [tetrahydrolinalool]
zone size, ciprofloxacin 5 μg disc ([1]; ciprofloxacin 5 μg disc): 23 mm

CN[C@H](CC(C)C)C(=O)N[C@H]1C(=O)N[C@@H](CC(N)=O)C(=O)N[C@H]2C(=O)N[C@H]3C(=O)N[C@H](C(=O)N[C@H](C(=O)O)c4cc(O)cc(O)c4-c4cc3ccc4O)[C@H](O)c3ccc(c(Cl)c3)Oc3cc2cc(c3O[C@@H]2O[C@H](CO)[C@@H](O)[C@H](O)[C@H]2O[C@H]2C[C@](C)(N)[C@H](O)[C@H](C)O2)Oc2ccc(cc2Cl)[C@H]1O [vancomycin]
Diameters of zones of inhibition [1, 5]: 19 millimeters | Diameters of zones of inhibition [1, 6]: 20 millimeters | Diameters of zones of inhibition [1, 7]: 20 millimeters | Diameters of zones of inhibition [1, 8]: 18 millimeters | Diameters of zones of inhibition [1, 9]: 19 millimeters | Diameters of zones of inhibition [1, 10]: 23.5 millimeters | Diameters of zones of inhibition [1, 11]: 20 millimeters | Diameters of zones of inhibition [1, 12]: 21 millimeters | Diameters of zones of inhibition [1, 13]: 25 millimeters | Diameters of zones of inhibition [1, 14]: 18 millimeters | Diameters of zones of inhibition [2, 8]: 17 millimeters | Diameters of zones of inhibition [2, 9]: 18 millimeters | Diameters of zones of inhibition [2, 10]: 18 millimeters | Diameters of zones of inhibition [2, 15]: 17 millimeters

CC1=CC=C(C(C)C)CC1 [α-terpinene]
zone size, ciprofloxacin 5 μg disc ([1]; ciprofloxacin 5 μg disc): 22 mm

gentamicin
Diameters of zones of inhibition [1, 5]: 20 millimeters | Diameters of zones of inhibition [1, 6]: 22 millimeters | Diameters of zones of inhibition [1, 7]: 24 millimeters | Diameters of zones of inhibition [1, 8]: 21 millimeters | Diameters of zones of inhibition [1, 10]: 26 millimeters | Diameters of zones of inhibition [1, 11]: 23 millimeters | Diameters of zones of inhibition [1, 12]: 29 millimeters | Diameters of zones of inhibition [1, 13]: 35 millimeters | Diameters of zones of inhibition [1, 14]: 18.5 millimeters | Diameters of zones of inhibition [2, 8]: 11 millimeters | Diameters of zones of inhibition [2, 10]: 17.5 millimeters | Diameters of zones of inhibition [2, 15]: 9 millimeters
